Data from patent US20220074923A1, “METHODS OF IDENTIFYING PARKIN-MEDIATED MITOPHAGY ACTIVATING AGENTS” (THE GOVERNING COUNCIL OF THE UNIVERSITY OF TORONTO, priority 2018, published 2022).

How the values were obtained:
[1] = test system: HeLa cells; test: Immunoblotting of Mfn2 degradation after Ac220 and CCCP; assay type: cell-based; conditions: Ac220 pre-treatment, 10 μM CCCP
Protocol: (§1) A) HeLa cells expressing GFP Parkin WT and mito-dsRed were treated with either DMSO, 10 μM CCCP or 4 μM Ac220 in combination with CCCP. B) Cell lysates from HeLa cells pre-treated with either DMSO or 4 μM Ac220 prior to addition of 10 μM CCCP were separated by SDS-PAGE and immunoblotting was performed against Mfn2 and actin. C) Cells were pre-treated with either DMSO, 2 μM Ac220, 1 μM Ac220 prior to addition of 10 μM CCCP. D) Cells were pre-treated with indicated concentrations of Ac220 prior to addition of 10 μM CCCP for 1 hour. Cell lysates were separated by SDS-PAGE and immunoblotting was performed against Mfn2 and actin. E) Densitometry analysis of Mfn2 levels normalized to loading control […]. Data is presented as mean±s.d. F) HeLa GFP Parkin cells were transfected with HA-PINK1 and pre-treated with either DMSO or Ac220 prior to addition of CCCP and Mg132. G) HeLa GFP Parkin cells and H) SH-SY5Y cells were pre-treated with either DMSO or Ac220 prior to addition of CCCP for the indicated time. Immunoblotting was performed using antibodies against PINK1 and actin.
Lysates were harvested using lysis buffer (0.1M Tris HCl, 0.01% SDS, pH 9) with 1× protease inhibitor cocktail (BioShop, PIC002.1). […] 12% SDS-PAGE gels were used to run samples to be analyzed for LC3 conversation and for Tom20 and 10% gels were run for all other samples. […]

[2] = test system: HeLa cells expressing GFP Parkin WT and mito-dsRed; test: Parkin recruitment after Ac220 pre-treatment and CCCP; assay type: cell-based; conditions: Ac220 pre-treatment, 10 μM CCCP
Protocol: as §1

[3] = test system: PINK1; test: PINK1 accumulation after mitochondrial damage (immunoblot); assay type: cell-based; conditions: Ac220 pre-treatment, CCCP; HeLa GFP Parkin and SH-SY5Y cells
Protocol: as §1

[4] = test system: HEK293 GFP Parkin cells; test: High throughput small molecule screen for Parkin recruitment to mitochondria (high content imaging); assay type: cell-based; conditions: for rank in the kinase inhibitor library screen (rank order by z-score): 4 μM, 16 h, then CCCP 2 h, rank out of 480, low rank = activator of Parkin recruitment, high rank = inhibitor; for % of cells with mitochondrial Parkin: CCCP only (DMSO pinned)
Protocol: 10 uL of 0.1 mg/mL Poly-D-Lys solution was added to 384-well plates for 5 minutes, followed by a PBS wash. Plates were dried for at least 2 hours. 50 μL of 600 000 HEK293 GFP Parkin cell/mL of DMEM was dispensed into each well. After 24 hours incubation to allow the cells to adhere, 200 nL of small molecules (or DMSO in columns 1, 2, 23 and 24) were pinned. Following a 16-hour incubation, 200 nL of 5 mM CCCP were added to all wells except columns 1 and 2, into which 200 nL of DMSO was added. Following 2-hour incubation, cells were fixed with 4% paraformaldehyde (PFA) and stained with 50 μL of 1 μg/mL DAPI solution for 15 minutes. After the final PBS wash, plates were ready for high content microscopy.
Images were acquired on IN Cell Analyzer 6000 (GE Healthcare), equipped with sCMOS camera (2048×2048), and 20x/0.45 NA Plan Fluor objective (Nikon) in open aperture mode using 1×1 binning. Image analysis was performed using Columbus Image Analysis System (PerkinElmer). Nuclei were initially detected in DAPI channel, followed by whole cell segmentation in GFP channel. Using PhenoLOGIC machine learning plug-in, cells were split into 2 sub-populations: cells with even GFP-Parkin distribution and cells where GFP-Parkin was localized to mitochondria. The percentage of cells with mitochondrial GFP-Parkin was determined per well. The molecules were then rank ordered based on z-score, which is calculated using the formula: […]
where x is the percentage of cells with mitochondrial GFP-Parkin for a specific small molecule, μ is the average percentage of cells with mitochondrial Parkin in positive control columns 23 and 24, where cells are treated with CCCP only.
These cell lines were screened across 2 biological replicates with compounds from the kinase inhibitor (n=480) and Prestwick (n=1120) collections. The 3-day screening protocol consisted of (1) seeding cells, (2) pinning small molecules at 4 μM concentration and (3) inducing mitophagy with CCCP, followed by processing of plates for high content imaging. Following image acquisition, DAPI staining was used to segment cells within each image. Supervised machine learning was used to classify cells into two classes: (1) cells with cytosolic Parkin distribution and (2) those with Parkin localized to mitochondria. […] Compounds which increased the proportion of class 2 cells across 2 biological replicates, compared to the CCCP-only treated cells (FIG. 10), as indicated by their z-score (FIG. 11), were considered hits.

[5] = test system: HeLa cells stably expressing GFP parkin and mito-DsRed; test: Mitochondrial clearance assay; assay type: cell-based; conditions: pre-treated with DMSO, 24 hour 10 μM CCCP
Protocol: HeLa cells stably expressing GFP parkin and mito-DsRed were seeded into 12-well plates containing coverslips and allowed to adhere overnight. Cells were then treated with DMSO or 0.5 μM SR3677 for 2 hours prior to addition of 10 μM CCCP for 24 hours. Cells were then washed with PBS, fixed with 4% PFA and washed with PBS again prior to the mounting of coverslips onto glass slides. Mitochondrial clearance was quantified by counting the number of cells in each treatment to retain mito-DsRed signal. 3 independent trials were performed with at least 50 cells quantified per trial.

[6] = test system: SH-SY5Y cells; test: Cell viability by crystal violet staining; assay type: cell-based; conditions: CCCP alone, 24 hours
Protocol: A) SH-SY5Y cells were pre-treated with either DMSO or 0.5 μM SR3677 prior to addition of either DMSO or 10 μM CCCP for 24 hours. Following treatment, cells were washed, fixed with 4% paraformaldehyde and stained with crystal violet dye. B) The OD at 550 nm was measured to assess crystal violet staining.
To determine whether these findings could be translated into dopaminergic neurons, the study was continued in the dopaminergic neuroblastoma SH-SY5Y cell line. Parkin undergoes a similar CCCP-dependent subcellular transition from cytosol to mitochondria in these cells^12. First, whether the viability of these cells would be improved by SR3677 was investigated. Initially, experiments were conducted using crystal violet staining as an indicator of cell viability. […] Next, SH-SY5Y cells were differentiated into a more neuron-like population according to protocols previously described^10 and ATP levels were measured. […] Varying concentrations of SR3677 were co-administered alongside the PD-causing toxin paraquat.

[7] = used in Japan; cited from earlier work
[8] = target: ROCK1 (Homo sapiens, UniProt Q13464); conditions: biochemical and cell-based assays, review; cited from earlier work
[9] = target: ROCK2 (Homo sapiens, UniProt O75116); conditions: biochemical and cell-based assays, previous studies; cited from earlier work
[10] = cited from earlier work
[11] = test system: HEK293 GFP Parkin cells; test: Parkin recruitment assay; assay type: cell-based
Protocol: HEK293 GFP Parkin cells were seeded into 12-well plates containing coverslips. Cells were treated with small molecules for 2 hours prior to mitophagy induction with 10 μM CCCP, unless indicated otherwise. Following fixation with 4% PFA, immunostaining was carried out using anti-ATP5A primary antibody and anti-mouse Alex Fluor 568.
To measure the percentage of cells with Parkin localized to mitochondria a 2 step process was employed: (1) whole cell segmentation based on GFP Parkin using CellProfiler software and (2) classification into Parkin distribution subpopulation using CellProfiler Analyst. The percentage of cells with Parkin localized to mitochondria was determined in each image. Images were taken at 20× magnification for this experiment, resulting in the classification of at least 300 cells in each treatment group per trial.

[12] = test system: HeLa cells; test: Mito-QC assay (targeting of mitochondria to lysosomes); assay type: cell-based; conditions: 50 μM chloroquine 16 hours pre-treatment
Protocol: HeLa cells were seeded into 6-well plates containing glass coverslips and allowed to adhere overnight. Cells were co-transfected with RGOMP25 and Cerulean-Parkin plasmids 24 hours prior to treatments. E-64 and leupeptin were added along with either DMSO or 10 μM CCCP for 6 hours prior followed by a PBS wash, fixation with 4% PFA and a final PBS wash prior to mounting onto glass slides with Fluoromount.
Cells were treated with 50 μM chloroquine for 16 hours prior to addition of E64, leupeptin, SR3677 and CCCP in the indicated treatment group. For the in vivo mitoQC assays, 5 7-day old male TH-GAL4>UAS-mitoQC were placed into vials containing water (control), sublethal 1 mM paraquat, 1 mM SR3677 alone and in combination with paraquat for 7 days. […] Fly brains were mounted in VectaShield™ mounting medium for imaging using the Zeiss LSM700 confocal fluorescence microscope with 40× 1.4 NA Oil Plan-APOCRAMAT objective and the appropriate lasers and filter. […]
Quantification of the RG assay was done using Fiji software. […] A red/green fluorescence intensity ratio was determined for each pixel. Pixels were considered red-only if the red/green fluorescence ratio was greater than or equal to 1.5. The area of red-only pixels over the total non-background area was determined and averaged across 4 independent trials in which at least 20 cells were quantified per treatment.

Chain of ROCK2 (O75116 whole entry): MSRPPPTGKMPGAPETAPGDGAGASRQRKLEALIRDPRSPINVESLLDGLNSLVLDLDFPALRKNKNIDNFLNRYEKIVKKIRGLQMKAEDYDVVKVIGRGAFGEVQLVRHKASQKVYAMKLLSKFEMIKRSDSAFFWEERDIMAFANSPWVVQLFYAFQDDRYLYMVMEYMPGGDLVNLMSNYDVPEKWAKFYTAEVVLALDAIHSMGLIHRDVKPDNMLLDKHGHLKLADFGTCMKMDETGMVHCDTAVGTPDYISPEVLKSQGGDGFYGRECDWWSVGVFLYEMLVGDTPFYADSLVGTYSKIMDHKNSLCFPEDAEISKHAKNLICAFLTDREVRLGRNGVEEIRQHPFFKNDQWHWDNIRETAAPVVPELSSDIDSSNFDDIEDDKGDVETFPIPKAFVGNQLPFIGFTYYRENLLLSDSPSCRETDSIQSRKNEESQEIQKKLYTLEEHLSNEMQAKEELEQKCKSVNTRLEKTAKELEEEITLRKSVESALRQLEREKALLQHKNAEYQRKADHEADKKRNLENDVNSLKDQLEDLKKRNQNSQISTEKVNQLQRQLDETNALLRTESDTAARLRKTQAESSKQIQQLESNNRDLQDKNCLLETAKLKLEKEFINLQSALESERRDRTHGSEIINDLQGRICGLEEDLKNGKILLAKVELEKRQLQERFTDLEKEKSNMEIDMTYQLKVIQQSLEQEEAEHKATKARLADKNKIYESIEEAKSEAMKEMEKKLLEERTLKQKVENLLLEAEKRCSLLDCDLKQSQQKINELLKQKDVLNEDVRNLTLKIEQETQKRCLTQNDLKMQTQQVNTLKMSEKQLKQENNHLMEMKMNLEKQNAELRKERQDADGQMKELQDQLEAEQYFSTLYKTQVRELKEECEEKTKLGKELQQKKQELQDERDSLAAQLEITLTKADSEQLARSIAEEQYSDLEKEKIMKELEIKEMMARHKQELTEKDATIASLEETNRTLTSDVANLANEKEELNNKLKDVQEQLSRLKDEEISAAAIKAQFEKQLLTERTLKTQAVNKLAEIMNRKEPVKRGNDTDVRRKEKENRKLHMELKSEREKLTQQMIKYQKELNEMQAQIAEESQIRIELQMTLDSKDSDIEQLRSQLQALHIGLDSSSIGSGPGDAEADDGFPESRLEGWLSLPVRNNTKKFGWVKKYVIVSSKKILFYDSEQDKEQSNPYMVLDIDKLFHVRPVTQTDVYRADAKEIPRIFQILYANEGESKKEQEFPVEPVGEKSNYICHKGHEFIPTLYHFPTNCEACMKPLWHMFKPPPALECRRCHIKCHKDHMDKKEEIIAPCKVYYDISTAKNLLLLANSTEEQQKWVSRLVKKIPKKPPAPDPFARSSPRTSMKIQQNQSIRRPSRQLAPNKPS
Chain of ROCK1 (Q13464 whole entry, species assumed): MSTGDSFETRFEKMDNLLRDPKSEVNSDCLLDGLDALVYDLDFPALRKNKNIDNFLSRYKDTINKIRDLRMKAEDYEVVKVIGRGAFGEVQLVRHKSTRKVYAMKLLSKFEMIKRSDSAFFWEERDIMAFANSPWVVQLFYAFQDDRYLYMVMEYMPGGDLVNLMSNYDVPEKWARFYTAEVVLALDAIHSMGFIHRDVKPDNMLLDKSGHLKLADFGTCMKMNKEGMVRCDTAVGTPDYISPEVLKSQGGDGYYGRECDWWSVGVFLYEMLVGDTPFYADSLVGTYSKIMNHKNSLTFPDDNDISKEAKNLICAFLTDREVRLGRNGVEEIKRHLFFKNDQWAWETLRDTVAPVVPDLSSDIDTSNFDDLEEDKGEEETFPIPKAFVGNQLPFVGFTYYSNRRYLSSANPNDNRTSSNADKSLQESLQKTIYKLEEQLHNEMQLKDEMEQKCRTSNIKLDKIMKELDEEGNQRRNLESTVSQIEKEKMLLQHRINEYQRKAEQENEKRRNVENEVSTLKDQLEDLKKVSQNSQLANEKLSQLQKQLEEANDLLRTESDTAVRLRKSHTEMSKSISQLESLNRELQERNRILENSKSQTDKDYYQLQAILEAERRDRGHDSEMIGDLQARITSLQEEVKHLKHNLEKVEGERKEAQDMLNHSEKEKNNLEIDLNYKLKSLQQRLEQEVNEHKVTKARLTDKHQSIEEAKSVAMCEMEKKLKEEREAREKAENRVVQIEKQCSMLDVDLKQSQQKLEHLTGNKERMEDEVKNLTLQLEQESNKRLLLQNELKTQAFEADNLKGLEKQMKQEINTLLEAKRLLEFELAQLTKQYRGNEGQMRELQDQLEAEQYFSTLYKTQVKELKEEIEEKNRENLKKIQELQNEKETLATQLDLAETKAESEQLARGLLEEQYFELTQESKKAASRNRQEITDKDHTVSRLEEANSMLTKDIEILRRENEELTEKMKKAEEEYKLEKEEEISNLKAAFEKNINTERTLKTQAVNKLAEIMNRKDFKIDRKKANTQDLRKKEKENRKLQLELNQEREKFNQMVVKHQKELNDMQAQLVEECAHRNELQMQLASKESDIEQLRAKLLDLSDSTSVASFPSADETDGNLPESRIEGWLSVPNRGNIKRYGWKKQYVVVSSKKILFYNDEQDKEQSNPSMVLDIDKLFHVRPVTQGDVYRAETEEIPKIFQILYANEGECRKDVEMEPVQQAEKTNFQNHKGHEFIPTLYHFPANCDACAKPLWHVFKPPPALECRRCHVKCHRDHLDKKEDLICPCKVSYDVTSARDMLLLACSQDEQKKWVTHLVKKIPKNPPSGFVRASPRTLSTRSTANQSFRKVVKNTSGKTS

CC(C)(C)c1cc(NC(=O)Nc2ccc(-c3cn4c(n3)sc3cc(OCCN5CCOCC5)ccc34)cc2)no1 [Ac220]
degradation of Mfn2 [1]: inhibited | Parkin recruitment [2]: inhibited Parkin recruitment | PINK1 accumulation in response to mitochondrial damage [3]: fails to accumulate | rank in the kinase inhibitor library screen (rank order by z-score) [4]: 475/480

N#CC(C#N)=NNc1cccc(Cl)c1 [CCCP, carbonyl cyanide m-chlorophenylhydrazone]
% of cells that retained mito-DsRed [5]: 47.5±8.25% | crystal violet staining [6]: reduced the amount of staining | % of cells with mitochondrial Parkin ([4]; Prestwick library screen): 71.2±2.6% | % of cells with mitochondrial Parkin ([4]; kinase inhibitor library screen): 83.4±2.3%

O=S(=O)(c1cccc2cnccc12)N1CCCNCC1 [Fasudil]
safety and efficacy in vasospasm following subarachnoid hemorrhage [7]: safety and efficacy | class in the screen (FIG. 1b) ([4]; ROCK inhibitors, 4 μM plus CCCP): Enhancers of Parkin recruitment

C[C@@H](N)[C@H]1CC[C@H](C(=O)Nc2ccncc2)CC1 [Y27632]
ROCK1 inhibition [8]: sufficiently inhibit both ROCK1 and ROCK2 | ROCK2 inhibition [9]: sufficiently inhibit both ROCK1 and ROCK2 | cell permeability [10]: poor cell permeability | Parkin recruitment on re-test ([11]; 10 μM, 2-hour treatment, CCCP): recapitulated the effects observed following overnight incubation | Parkin distribution in the absence of CCCP ([11]; compound alone): diffuse | rank in the kinase inhibitor library screen (rank order by z-score) [4]: 9/480

CCN(CC)CCCC(C)Nc1ccnc2cc(Cl)ccc12 (centres unmarked) [chloroquine]
effect on SR3677-mediated enhancement of mitophagy [12]: abrogates SR3677-mediated enhancement of mitophagy
